The source of these data is article PMC7918798, “Coumarins from Seseli devenyense Simonk.: Isolation by Liquid–Liquid Chromatography and Potential Anxiolytic Activity Using an In Vivo Zebrafish Larvae Model” (International Journal of Molecular Sciences, 2021).

One data set relates to GABAA receptor. As to conditions: cited from earlier work; for influence on GABAA receptor: compared with phellopterin.
The next data set concerns GABA/BDZ receptor. Set-up: method as in PMID 8971802. As to conditions: cited from earlier work.
A further data set has as its system animal model. To be noted: cited from earlier work; for anxiolytic activity (percentage of time and number of arms entries in the open arm): elevated plus maze.
The nature of data set [1]: Shake-flask partition coefficient in HEMWat biphasic solvent systems. Type of data set: physicochemical. As to the method:
The screening for suitable biphasic solvent systems to isolate the target coumarins from Seseli devenyense methanolic fruit extract (SDMFE) was performed by shake-flask experiments. The partition coefficient (Pi), defined as the ratio of the concentration of a solute in the stationary phase to its concentration in the mobile phase, was used as the screening parameter. The experimental protocol was previously descried by Widelski et al. (2018). Briefly, 1 mg of crude extract was dissolved in 4 mL of biphasic solvent systems obtained by mixing various volumes of hexane, ethyl acetate, methanol and water (HEMWat). After vigorous shaking, the flasks were left until the complete separation of the layers. Then, equal volumes of the upper and lower phase (0.5 mL) were taken, evaporated to dryness, dissolved again in methanol (1.0 mL) and analyzed by HPLC-DAD analysis, as descried below.
The preliminary analysis of the SDMFE, determination of the partition coefficient values and purity of collected fractions were assessed by HPLC-DAD. The HPLC-DAD analyses were performed on a Shimadzu HPLC (Shimadzu, Tokyo, Japan) equipped with automatic degasser (DGU-20A3R), quaternary pump (LC-20AD), auto-sampler (SIL-20AHT) and diode array detector (SPD-M20A). The separations were carried out on an Agilent Zorbax Eclipse XDB-C18 (Agilent, Santa Clara, CA, USA) (250 mm × 4.6 mm, 5 μm) column with a mobile phase consisting of water (solvent A) and methanol (solvent B). The following gradient was applied: 0 min: 50% B; 5 min: 60% B; 25 min: 80% B; 30–35 min: 100% B. The flow-rate was 1 mL/min; the column temperature was set at 25 °C. The injection volume of sample was 10 μL and detection was carried out at 320 nm.

Data set [2] deals with 5-dpf zebrafish larvae. In words: Zebrafish larvae light/dark transition challenge: locomotor activity and thigmotaxis (anxiolytic activity assay, Phase 2). The format is in vivo, Danio rerio. To be noted: for distance moved by the larvae in the central arena / time spent in the central area: dark phase vs light phase, concentration not stated; for anxiolytic activity (authors' overall statement): zebrafish larvae model. The protocol:
(§1) The research protocol was adopted after Schnorr et al. (2012). The anxiolytic activity was evaluated in 24-well plates. The inner and outer zones of the well were delineated according to Schnorr et al. (2012). […] It could be also described as decreasing thigmotaxis. 1% DMSO in E3 solution was used as the negative control, 10 μM diazepam was used as the positive control. 32 larvae were used for each concentration.
(§2) The experimental procedure was divided into three stages: • (a) Preincubation: larvae were pre-incubated in a 1500 μL solution of tested compounds in individual wells of a 24-well plate at 28.5 °C, in dark, for 30 min. • (b) Acclimatization (min 0–10): plates were placed in an automated video recording bench station (ViewPoint, Lyon, France). Larvae were allowed to acclimatize to the test apparatus for 10 min. During this period, lights were kept on. • (c) Visual motor challenge (min 11–95): this stage experiment was divided into two phases: Phase 1—continuous illumination: larvae were subjected to continuous light for 40 min, with the purpose to determine the spontaneous locomotor activity and thigmotaxis behavior (before applying the factor causing the anxiety). Phase 2—light/dark transition: larvae were subjected to three cycles, each involving the 10-min lighting phase (continuous light) and the 5-min dark phase (anxiogenic factor).

Data set [3] deals with 5-dpf zebrafish larvae. In words: Zebrafish larvae 40 min continuous illumination: spontaneous locomotor activity and thigmotaxis (Phase 1). The format is in vivo, Danio rerio. As to conditions: for spontaneous locomotor activity (average distance moved): 40 min continuous illumination. As to the method:
as §1, §2

The test system of a further data set is mice. To be noted: 5 mg/kg; cited from earlier work.
Details of data set [4]: method as in PMID 23803166. To be noted: cited from earlier work.
A further data set relates to zebrafish. Also noted: method as in PMID 33049351. As to conditions: zebrafish model; cited from earlier work.
The next data set concerns murine model. Also noted: method as in PMID 33049351. As to conditions: cited from earlier work.
Setting [5] is: dark phase vs DMSO-treated group in dark phase, 12.5 μM.
Setting [6] is: dark phase vs DMSO-treated group in dark phase, 25 μM.
The mark [7] stands for this setting: dark phase vs DMSO-treated group in dark phase, 50 μM.
[8] abbreviates: dark phase vs light phase within same group, 12.5 μM.
[9] abbreviates: dark phase vs light phase within same group, 25 μM.
Setting [10] is: light phase vs DMSO-treated group in light phase, 12.5 μM.
Setting [11] is: light phase vs DMSO-treated group in light phase, 50 μM.
Where [12] appears, read: 40 min continuous illumination vs DMSO-treated group, 12.5 µM.
The mark [13] stands for this setting: dark phase vs DMSO-treated group in dark phase, 9 μM.
Where [14] appears, read: dark phase vs light phase within same group, 9 μM.
Setting [15] is: dark phase vs light phase within same group, 15 μM.
Where [16] appears, read: dark phase vs light phase within same group, 30 μM.

Take `COc1c2ccoc2cc2oc(=O)ccc12` [bergapten]: the “influence on GABAA receptor” value in the data set on GABAA receptor was “weaker influence”.
With `COc1c2ccoc2c(OC[C@H]2OC2(C)C)c2oc(=O)ccc12` [byakangelicol], the “mode of action at GABA/BDZ receptor” value in the data set with GABA/BDZ receptor is “partial agonists”.
As to `COc1cc2cc(Oc3ccc4ccc(=O)oc4c3)c(=O)oc2cc1O` [daphnoretin], the anxiolytic activity result in the data set with animal model (rodent model of anxiety, tested on EPM) is “significant anxiolytic activity”.
Take `CC(C)=CCOc1c2occc2cc2ccc(=O)oc12` [imperatorin]: the “influence on GABAA receptor” value in the data set with GABAA receptor is given as “weaker influence”. Also, the “anxiolytic activity (percentage of time and number of arms entries in the open arm)” value with animal model is on record as “significant anxiolytic activity”.
As to `CC(C)=CCOc1c2ccoc2cc2oc(=O)ccc12` [isoimperatorin], the “anxiolytic activity (percentage of time and number of arms entries in the open arm)” value in the data set on animal model was “significant anxiolytic activity”.
`C/C=C(/C)C(=O)O[C@H]1[C@@H](O)c2c(ccc3ccc(=O)oc23)OC1(C)C` [isolaserpitin]: in data set [1] (solvent system II, hexane/ethyl acetate/methanol/water 6/5/6/5 (v/v/v/v)), the “Partition Coefficients (Pi)” value was found to be 1.01. For the same compound, the “locomotor activity (average distance moved per 1-min time bin)” value is “significant increases” in the data set with 5-dpf zebrafish larvae [2] (setting [5]); “significant increases” in the data set on 5-dpf zebrafish larvae [2] (setting [6]); “significant increases” in the data set with 5-dpf zebrafish larvae [2] (setting [7]); “significant increase” in the data set with 5-dpf zebrafish larvae [2] (setting [10]); “significant increase” in the data set with 5-dpf zebrafish larvae [2] (light phase vs DMSO-treated group in light phase, 25 μM); “significant increase” with 5-dpf zebrafish larvae [2] (setting [11]). Further, the “percentage of distance moved in central area” value is recorded as “significant increases” with 5-dpf zebrafish larvae [2] (setting [5]); “significant increases” in the data set on 5-dpf zebrafish larvae [2] (setting [6]); “significant increases” with 5-dpf zebrafish larvae [2] (setting [7]); “increase” in the data set on 5-dpf zebrafish larvae [2] (setting [8]); “increase” in the data set with 5-dpf zebrafish larvae [2] (setting [9]); “increase” with 5-dpf zebrafish larvae [2] (dark phase vs light phase within same group, 50 μM). Further, the “percentage of distance moved in central area” value in the data set with 5-dpf zebrafish larvae [2] (setting [10]) and with 5-dpf zebrafish larvae [2] (setting [11]) was “significant increase” in each case. For the same compound, the “percentage of time spent in central area” value in the data set with 5-dpf zebrafish larvae [2] (setting [5]) was “significant increases”; in the data set with 5-dpf zebrafish larvae [2] (setting [6]), “significant increases”; in the data set on 5-dpf zebrafish larvae [2] (setting [7]), “significant increases”; with 5-dpf zebrafish larvae [2] (setting [8]) it was “increase”; in the data set with 5-dpf zebrafish larvae [2] (setting [9]) it was “increase”; with 5-dpf zebrafish larvae [2] (setting [10]), “significant increase”. Besides, the “percentage of time spent in central area” value in the data set on 5-dpf zebrafish larvae [2] (setting [11]) is listed as “significant increase”. The “distance moved by the larvae in the central arena” value in the data set with 5-dpf zebrafish larvae [2] is given as “significantly increased”. Besides, the “time spent in the central area” value with 5-dpf zebrafish larvae [2] is “significantly increased”. For the same compound, the “anxiolytic activity (authors' overall statement)” value with 5-dpf zebrafish larvae [2] is recorded as “higher”. In addition, the “percentage of distance moved in the central arena” value in the data set with 5-dpf zebrafish larvae [3] (setting [12]) was “increased”; in the data set on 5-dpf zebrafish larvae [3] (40 min continuous illumination vs DMSO-treated group, 50 µM), “increased”. Moreover, the “percentage of time spent in the central arena” value in the data set on 5-dpf zebrafish larvae [3] (setting [12]) was “increase”. Further, in the data set with 5-dpf zebrafish larvae [3] (all concentrations (12.5, 25, 50 µM)), the “spontaneous locomotor activity (average distance moved)” value is “has not influenced”.
As to `CCCCCCCC(=O)O[C@H]1Cc2c(ccc3ccc(=O)oc23)OC1(C)C` [octanoyllomatin], the “Partition Coefficients (Pi)” value in [1] (solvent system III, hexane/ethyl acetate/methanol/water 5/2/5/2 (v/v/v/v)) is 2.01. The “percentage of distance moved in central area” value in the data set on 5-dpf zebrafish larvae [2] (setting [13]) was “significant increases”; in the data set with 5-dpf zebrafish larvae [2] (setting [14]), “increase”; in the data set with 5-dpf zebrafish larvae [2] (setting [15]), “increase”; with 5-dpf zebrafish larvae [2] (setting [16]), “increase”. Besides, the “percentage of time spent in central area” value in the data set with 5-dpf zebrafish larvae [2] (setting [13]) is on record as “significant increases”; with 5-dpf zebrafish larvae [2] (dark phase vs DMSO-treated group in dark phase, 15 μM) it was “significant increases”; in the data set on 5-dpf zebrafish larvae [2] (setting [14]) it was “increase”; in the data set on 5-dpf zebrafish larvae [2] (setting [15]) it was “increase”; with 5-dpf zebrafish larvae [2] (setting [16]) it was “increase”; in the data set on 5-dpf zebrafish larvae [2] (light phase vs DMSO-treated group in light phase, 30 μM), “decrease”. For the same compound, the “locomotor activity (average distance moved per 1-min time bin)” value is “significant decreases” in the data set on 5-dpf zebrafish larvae [2] (dark phase vs DMSO-treated group in dark phase, 30 μM); “increase” in the data set with 5-dpf zebrafish larvae [2] (setting [14]); “increase” in the data set with 5-dpf zebrafish larvae [2] (setting [15]). The “distance moved by the larvae in the central arena” value in the data set on 5-dpf zebrafish larvae [2] is “significantly increased”. In the data set on 5-dpf zebrafish larvae [2], the “time spent in the central area” value was “significantly increased”. In addition, the “anxiolytic activity (authors' overall statement)” value in the data set on 5-dpf zebrafish larvae [2] is reported as “highest anxiolytic activity”. Moreover, in the data set on 5-dpf zebrafish larvae [3] (all concentrations (9, 15, 30 µM)), the “spontaneous locomotor activity (average distance moved)” value is recorded as “has not influenced”.
For `CC(C)=CCCC(C)=CCc1cc2ccc(=O)oc2cc1O` [ostruthin, 6-(3,7-dimethyl-2,6-octadienyl)-7-hydroxycoumarin], in the data set with mice, the anxiolytic effect entry is “anxiolytic effect”.
Broadly, the IC50 is the point on the concentration scale where inhibition reaches its midpoint. On to `COc1c2ccoc2c(OCC=C(C)C)c2oc(=O)ccc12` [phellopterin], for which the IC50 on GABAA receptor was 360 nM. The “mode of action at GABA/BDZ receptor” value with GABA/BDZ receptor is on record as “partial agonists”.
Turning to `O=c1ccc2cc3ccoc3cc2o1` [psolaren], the “mode of action at GABA/BDZ receptor” value with GABA/BDZ receptor was “partial agonists”.
`COc1cc2ccc(=O)oc2cc1O` [scopoletin, 7-hydroxy-6-methoxycoumarin]: in data set [4], the anxiolytic effects entry was “significant sustained anxiolytic effects”.
With `O=c1ccc2ccc(O)cc2o1` [umbelliferone, 7-hydroxycoumarin], the anxiolytic effects entry in data set [4] was “significant sustained anxiolytic effects”.
As for `COc1c2occc2cc2ccc(=O)oc12` [xanthotoxin], the “effect on anxiety behaviors (thigmotaxis)” value with zebrafish and in the data set on murine model was “reversed U-shape effect” throughout.
